Assay results from patent US20100075950A1, “PHENY[…] DOPAMINE RECEPTOR” (AUSPEX PHARMACEUTICALS, INC., priority 2008, published 2010).

Assay: In vitro liver microsomal stability assay
Assay type: in vitro ADME
Settings: 1 mg per mL liver microsome protein, NADPH-generating system, 5 microgram per mL test compound, about 37° C., 0-60 minutes, LC/MS/MS
Protocol: Liver microsomal stability assays were conducted at 1 mg per mL liver microsome protein with an NADPH-generating system in 2% NaHCO3 (2.2 mM NADPH, 25.6 mM glucose 6-phosphate, 6 units per mL glucose 6-phosphate dehydrogenase and 3.3 mM MgCl2). Test compounds were prepared as solutions in 20% acetonitrile-water and added to the assay mixture (final assay concentration 5 microgram per mL) and incubated at about 37° C. Final concentration of acetonitrile in the assay should be <1%. Aliquots (50 μL) were taken out at times 0, 15, 30, 45, and 60 minutes, and diluted with ice cold acetonitrile (200 μL) to stop the reactions. Samples were centrifuged at 12,000 RPM for about 10 minutes to precipitate proteins. Supernatants were transferred to microcentrifuge tubes and stored for LC/MS/MS analysis of the degradation half-life of the test compounds.

For `Cl.[2H]C([2H])([2H])C(NC(C)C(=O)c1cccc(Cl)c1)(C([2H])([2H])[2H])C([2H])([2H])[2H]` (stereo not shown) [Example 2, 2-(tent-d9-Butylamino)-1-(3-chlorophenyl)propan-1-one Hydrochloride], the “degradation half-life as compared to the non-isotopically enriched compound” value was “improved degradation half-life”.
